The text below walks through data of patent US7396946B2, “Compound for treatment of external secretion disorders” (Sucampo AG, priority 1999, dated 2008).

Marks after values point to notes of the source that are not given here.

For assay [1], the system named is Rabbit Dry-eye Syndrome Model, which was Induced by Trigeminal Denervation. As to the kind of experiment: Basal tear secretion in rabbit dry-eye syndrome model induced by trigeminal denervation (Test Example 2). The assay is classed as in vivo, male Japanese albino rabbits (Std:JW/CSK). Conditions: for basal tear secretion: 5 eyes. The method, then:
(§1) Fifteen male Japanese albino rabbits (Std:JW/CSK) were used.
(§2) (2) Generating Rabbit Dry-eye Syndrome Model by Trigeminal Denervation.
(§3) Urethane (ALDRICH) was administered i.p. at the dose of 1 g/kg to the rabbits of which occipital hair had been shaved.
(§4) After disinfecting of the shaved area, midline incision of the skin was made from the frontal bone to the ear root, and the muscular tissue around the periosteum, temporal bone and manidibular articular process were detached. After the detachment, a hole of 2×1.5 cm in size was made in the bone from the parietal medial region to the temporal region by means of the bone drill (URAWA KOGYO Co., Ltd. MINITOR C-130) under the surgical microscope (KONAN CAMERA R&I Inc., PMO-50). Then, the dura was detached from the cranial bone while cotton bud was kept inserted between the temporal bone and the dura. After the detachment was made up to the cranial base, detachment was further made toward the medial border of the petrous part of temporal bone in the carnial cavity, to find the trigeminal nerve in the petrous part. Then, the dura of about 1 to 2 mm on the nasal side of the semilunar ganglion was incised. After the incision, the two branches of nerve fascicle, i.e. the first branch (ocular nerve) of the trigeminal nerve and the second branch (maxillary nerve) were pulled laterally and cut with corneoscleral scissors. Immediately after the operation, miosis of the ipsilateral eye was confirmed and then the cotton kept inserted was removed, and the skin at the head was closed with suture. After the operation, an antibiotic (MYCILLIN SQL® Meiji) was administered i.m. at the dose of 0.1 ml/kg.
(§5) The trigeminal denervation was made only on the left eye side, while on the right eye side, no trigeminal denervation nor sham operation was made.
(§6) (3) Method of Administration.
(§7) 13,14-dihydro-15-keto-16,16-difluoro-PGE1 was used as an active ingredient of the present invention to prepare test eyedrops containing 0.0001% and 0.001% of the compound. As a control, the vehicle of the eyedrops without the active ingredient was used.
(§8) Each of the compositions was instilled to the eyes everyday at the volume of 30 μl/eye two times a day (at 10:00 and 18:00) for two weeks. Five eyes per each of the test groups and the control group were treated and then examined for the whole tear secretion, the basal tear secretion and the keratoepithelial lesion as follows.
Before the start of the instillation (week 0), and 1, 2, and 3 weeks after the start, the basal tear secretion was measured 2 hours after the 1st instillation on the day of the examination.
Keratoconjunctiva was anesthetized by instillation of 4% lidocaine (Xylocalne® 4% for ophthalmic solution; Fujisawa Pharmaceutical Co., Ltd.), the eye drops and the tear around the eyelid were wiped off about 5 minutes after and loss of keratoconjunctival esthesia was confirmed with the Cochet-Bonnet type esthesiometer. Then, one edge of the Shirmer's test strip was inserted into the conjunctival sac and kept there for 5 minutes. The length of the moistened part was read from the scale on the strip.
The basal tear secretion was expressed by mean value per minute calculated from the 4-minutes value obtained by subtracting the initial 1-minute value from the 5-minutes Sirmer's test, so that the spontaneous volume of the tear retained in the conjunctival sac might be excluded.

The test system is the same in assay [2]. Briefly: Keratoepithelial lesion score in rabbit dry-eye syndrome model induced by trigeminal denervation (Test Example 2). The assay is classed as in vivo, male Japanese albino rabbits (Std:JW/CSK). Conditions: for Keratoepithelial lesion: score 0-4 by stained area (Table 2), 5 eyes. The method, then: as §1, §2, §3, §4, §5, §6, §7, §8
iii) Keratoepithelial Lesion
Before the start of instillation (week 0) and 1, 2, and 3 weeks after the start, the keratoepithelial lesion was evaluated two hours after the first instillation on the day of examination.
Each animal was placed in a stainless steel fixator, and given instillation of 50 μl of the mixture of 1% rose bengal and 1% fluorescein to stain their keratoconjunctival epithelium.

Setting [3] is: 0.0001% eyedrops 30 μl/eye two times a day for two weeks, week 1.
[4] abbreviates: 0.0001% eyedrops 30 μl/eye two times a day for two weeks, week 2.
Setting [5] is: 0.0001% eyedrops 30 μl/eye two times a day for two weeks, week 3.
The mark [6] stands for this setting: 0.001% eyedrops 30 μl/eye two times a day for two weeks, week 1.
[7] abbreviates: 0.001% eyedrops 30 μl/eye two times a day for two weeks, week 2.
[8] abbreviates: 0.001% eyedrops 30 μl/eye two times a day for two weeks, week 3.
Where [9] appears, read: dry-eye syndrome model animals, 0.0001% and 0.001% eyedrops.
The mark [10] stands for this setting: test group 0.0001% eyedrops, before administration (after operation, baseline).
[11] abbreviates: test group 0.001% eyedrops, before administration (after operation, baseline).

`CCCCC(F)(F)C(=O)CCC1C(O)CC(=O)C1CCCCCCC(=O)O` (stereo not drawn) [13,14-dihydro-15-keto-16,16-difluoro-PGE1]: the basal tear secretion in assay [1] (setting [3]) is 1.53 ± 0.26^[+] mm/min; in assay [1] (setting [4]), 1.60 ± 0.11**^++ mm/min; in assay [1] (setting [5]), 1.48 ± 0.17^#[++] mm/min; in assay [1] (setting [6]), 2.00 ± 0.12*^##++ mm/min; in assay [1] (setting [7]), 2.00 ± 0.18*^##++ mm/min; in assay [1] (setting [8]), 2.00 ± 0.14*^##++ mm/min. The basal tear secretion in assay [1] (setting [10]) was 0.43 ± 0.06^[**^] mm/min; in assay [1] (setting [11]), 0.43 ± 0.08 mm/min. The “decreased basal tear secretion (result in words)” value in assay [1] (setting [9]) is “improved”. Also, the Keratoepithelial lesion was 1.00 ± 0.27^[*^]++ score in assay [2] (setting [3]); 0.50 ± 0.16^[*^]++ score in assay [2] (setting [4]); 0.40 ± 0.19^#++ score in assay [2] (setting [5]); 0.70 ± 0.34^++ score in assay [2] (setting [6]); 0.10 ± 0.10^[++] score in assay [2] (setting [7]); 0.10 ± 0.10^[##][++] score in assay [2] (setting [8]). The Keratoepithelial lesion in assay [2] (setting [10]) and in assay [2] (setting [11]) was 3.00 ± 0.32^[**^] score in each case. For the same compound, the “keratoconjunctival lesion accompanied by the decrease of the tear secretion (result in words)” value in assay [2] (setting [9]) was “improved”.
